Laboratory results published in patent US9115092B2, “Substituted quinazoline and pyrido-pyrimidine derivatives” (Asana Biosciences, LLC, priority 2010, dated 2015).

How the values were obtained:
pAkt(5473), BT474 cells = assay: In-cell Western assay, pAkt(5473) in BT474 cells; format: cell-based; settings: Homo sapiens, BT-474, BT474 cell line, read-out: inhibition of pAkt(5473), IC50
pS6RP, BT474 cells = assay: In-cell Western assay, pS6RP in BT474 cells; format: cell-based; settings: Homo sapiens, BT-474, BT474 cell line, read-out: inhibition of pS6RP, IC50
BT474 cells = assay: XTT assay for cell viability, BT474 cells; format: cell-based; settings: Homo sapiens, BT-474, read-out: inhibition of cell proliferation, IC50
Method: (§1) Using a commercial kit from Sigma Aldrich (Catalog #X34251) and following its protocol, PC3 cells in the log phase of growth were employed and seeded at an optimal density of 1000 cell/well on to 96 well plates and incubated for 24 h followed by the addition of compounds of formula (I) in serial dilutions. Compound dilutions were made in DMSO. The cells were incubated with the compounds of formula (I) for 96 h and XTT tetrazolium dye (Sigma, USA) was subsequently added and incubated at 37° C. After the color formation, absorbance was measured at 465 nm in a Spectramax® Gemini spectrophotometer. EC50 values were calculated using a sigmoidal dose response curve fit in GraphPad Prism® v5 software. The tested compounds of formula (I) which caused inhibition of PC3 cell proliferation as determined by this assay protocol are shown in Table 2.
(§2) XTT assays for cell viability are also determined in BT474 cells and T47D cells, in a similar manner to the protocol described above.

T47D cells = assay: XTT assay for cell viability, T47D cells; format: cell-based; settings: Homo sapiens, read-out: inhibition of cell proliferation, IC50
Method: as §1, §2

PI3 kinase isoform γ = PI3 kinase isoform γ (Homo sapiens, UniProt P48736); assay: PI3 Kinase TR-FRET assay, isoform γ; format: biochemical; settings: read-out: inhibition of PI3 kinase isoform γ, IC50
Method: The ability of compounds of the invention to inhibit PI3K activity was determined in a homogeneous TR-FRET assay using a PI3K assay kit (Millipore, USA; cat #33-016) according to manufacturer's instructions. PI3-Kinases (isoforms α, β, γ and δ) catalyze the phosphorylation of phosphatidylinositol, PIP2 to PIP3 in the presence of ATP and Mg^2+. The PIP3 product is detected by displacement of biotin-PIP3 from an energy transfer complex consisting of Europium labeled anti-GST monoclonal antibody, a GST-tagged PH domain, biotinylated PIP3 and Streptavidin-APC. Excitation of Europium in the complex results in an energy transfer to the APC and a fluorescence emission at 665 nm. The PIP3 product displaces biotin-PIP3 from the complex resulting in a loss of energy transfer and thus a decrease in signal.
To test for the ability of compounds to inhibit the activity of PI3Kα (wild-type), exemplary compounds of formula (I) were dissolved in DMSO and directly distributed into 384-well plates at a volume of 0.5 μL. […] Fluorescence was measured at 615 and 665 nm upon excitation at 340 nm in a Victor™ V5 fluorometer (Perkin Elmer, USA). The fluorescence emission ratio at 665 to 615 nm, proportional to the kinase activity, was plotted against the compound concentration to generate dose-response curves and IC50 values were determined using GraphPad Prism® 5 software. […]

[1] = test system: pAkt(5473) in BT474 tumor; assay: In vivo PK/PD study, BT474 tumor-bearing xenograft mice, pAkt(5473); settings: 2 weeks at 40 mg/kg bid po
Method: PC3 cells were cultured at 37° C. in a 5% CO2 incubator using Hams F12 K medium. Ten million (10^7) cells were injected subcutaneously to the right flank region of athymic male mice (Harlan, age: 6-7 weeks, weight: about 20 g). Tumor bearing mice were randomized when the tumor volume reached about 250 mm^3 and three mice were used per each time point. Test compounds of formula (I) were formulated in 40% HPCD in 1×PBS, pH 7.4 and dosed orally at 50 mg/kg single dose (dose volume−10 mL/kg). Plasma and tumor samples were collected at 0 (vehicle control animals), 1, 4 and 24 hours post dosing. Blood was drawn (retro orbital) to a tube containing 0.2% EDTA for plasma collection. The tumor was excised from the mouse and immediately frozen in liquid nitrogen for PD analysis. Tumor and plasma drug concentrations were measured for PK analysis using LC-MS.
Snap frozen tumor samples were pulverized in a mortar (Belart) containing liquid nitrogen and tumor powder was stored at −80° C. until analysis. […] The detection for pAKT was based on chemiluminescence and pS6RP was based on absorbance. […]
In vivo pharmacokinetic/pharmacodynamic (PK/PD) studies were also carried out using BT474 tumor cells and the corresponding tumor-bearing xenograft mice, and compounds of the invention were determined to be active in this assay. […]

Chain of PI3 kinase isoform γ (P48736 whole entry, the tested form may be a part, canonical isoform): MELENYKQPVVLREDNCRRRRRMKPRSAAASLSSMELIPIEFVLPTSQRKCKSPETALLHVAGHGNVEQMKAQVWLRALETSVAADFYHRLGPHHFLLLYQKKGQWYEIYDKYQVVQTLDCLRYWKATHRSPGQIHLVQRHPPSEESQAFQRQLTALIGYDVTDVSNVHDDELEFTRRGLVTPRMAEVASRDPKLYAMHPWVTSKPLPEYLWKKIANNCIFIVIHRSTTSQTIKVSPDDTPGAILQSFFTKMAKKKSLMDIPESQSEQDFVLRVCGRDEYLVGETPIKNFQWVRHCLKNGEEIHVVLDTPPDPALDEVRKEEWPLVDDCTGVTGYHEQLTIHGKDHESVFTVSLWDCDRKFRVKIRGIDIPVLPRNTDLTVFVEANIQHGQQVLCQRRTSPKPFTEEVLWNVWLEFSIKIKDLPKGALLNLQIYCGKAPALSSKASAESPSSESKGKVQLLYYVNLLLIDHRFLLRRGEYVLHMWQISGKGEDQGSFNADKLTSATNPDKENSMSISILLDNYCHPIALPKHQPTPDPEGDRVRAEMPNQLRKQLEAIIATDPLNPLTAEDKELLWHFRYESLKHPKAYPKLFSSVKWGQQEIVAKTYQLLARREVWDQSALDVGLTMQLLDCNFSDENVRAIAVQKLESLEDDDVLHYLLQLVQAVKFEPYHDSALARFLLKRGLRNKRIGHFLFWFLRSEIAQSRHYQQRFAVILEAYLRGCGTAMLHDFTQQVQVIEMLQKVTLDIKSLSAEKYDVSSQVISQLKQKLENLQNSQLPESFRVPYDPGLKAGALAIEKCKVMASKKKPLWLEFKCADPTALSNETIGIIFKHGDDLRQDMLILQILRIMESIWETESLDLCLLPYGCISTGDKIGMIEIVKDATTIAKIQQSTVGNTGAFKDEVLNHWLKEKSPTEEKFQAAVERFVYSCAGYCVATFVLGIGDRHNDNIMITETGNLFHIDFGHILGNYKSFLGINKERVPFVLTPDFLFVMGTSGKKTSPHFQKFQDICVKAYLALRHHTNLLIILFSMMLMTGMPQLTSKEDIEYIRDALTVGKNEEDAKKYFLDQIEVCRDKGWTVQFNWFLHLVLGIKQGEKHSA

IC50 (PI3 kinase isoform γ) | Compound | IC50 (pAkt(5473), BT474 cells) | IC50 (pS6RP, BT474 cells) | IC50 (BT474 cells) | IC50 (T47D cells) | suppression of pAkt(5473) in tumor tissue samples by Western blot [1]
 | CN(C)C(=O)c1ccc(NC(=O)Nc2ccc(-c3nc(N4CCOCC4)c4ccc(-c5cncnc5)cc4n3)cc2)cc1 [Example 1, N,N-Dimethyl-4-(3-{4-[4-morpholin-4-yl-7-pyrimidin-5-yl-quinazolin-2-yl)-phenyl]-ureido}-benzamide] | < 300 nM | < 50 nM | < 100 nM | < 100 nM | 
< 1000 nM | Cc1ccc(-c2ccc3c(N4CCOCC4)nc(-c4ccc(NC(=O)Nc5ccc(C(=O)N(C)C)cc5)cc4)nc3c2)o1 [Example 2, N,N-Dimethyl-4-(3-{4-[7-(5-methyl-furan-2-yl)-4-morpholin-4-yl-quinazolin-2-yl]-phenyl}-ureido)-benzamide] |  |  |  |  | significant suppression
 | CN(C)C(=O)c1ccc(NC(=O)Nc2ccc(-c3nc(N4CCOCC4)c4ccc(-c5ccco5)cc4n3)cc2)cc1 [Example 51, 4-{3-[4-(7-furan-2-yl-4-morpholin-4-yl-quinazolin-2-yl)-phenyl]-ureido}-N,N-dimethyl-benzamide] |  |  |  |  | significant suppression
